Reference: PMC2936338 (Molecular Cancer, 2010)
Where two headings read alike, the source gives them in different places.

Legend:
U251 glioblastoma cells = test: MTT cell viability assay; conditions: read-out: IC50 values (μM), cell viability
Experimental: (§2) Twenty-five μl of 3-(4,5-Dimethylthiazolyl)-2,5-diphenyltetrazolium bromide (MTT, Sigma) was added to each sample and incubated for 3.5 hours. After this, 100 μl of N, N-dimethylformamide (Sigma) solubilization solution was added to each well. […] Half-Maximal inhibitory concentrations (IC50) were determined using Sigma Plot 9.0 software (Systat Software Inc., San Jose, CA).

Hep3B liver cancer cells = test: MTT cell viability assay; conditions: read-out: IC50 values (μM), cell viability
Experimental: as §2

[1] = test system: SNU-449 liver cancer cells; test: MTT cell viability assay; conditions: read-out: IC50 values (μM), cell viability
Experimental: as §2

[2] = test system: Cleaved Caspase-3 in U266 cells; test: Western blot, U266 cells; type: cell-based, human; conditions: U266, positive controls
Experimental: (§1) Membranes were analyzed with enhanced chemiluminescence Plus reagents (GE Healthcare) and scanned with a Storm PhosphorImager (Amersham Pharmacia Biotech Inc.).

[3] = test system: P-STAT3(Y705) in U266 cells; test: Western blot, U266 cells; type: cell-based, human; conditions: U266, positive controls
Experimental: as §1

[4] = test system: P-STAT3(Y705) in HCT-116 cells; test: Western blot, HCT-116 cells; type: cell-based, human; conditions: HCT116, positive controls
Experimental: as §1

[5] = test system: Cleaved Caspase-3 in HCT-116 cells; test: Western blot, HCT-116 cells; type: cell-based, human; conditions: HCT116, positive controls
Experimental: as §1

[6] = test system: SW480 colorectal cancer cells; test: MTT cell viability assay; conditions: read-out: IC50 values (μM), cell viability
Experimental: as §2

[7] = test system: U266 multiple myeloma cells; test: MTT cell viability assay; conditions: read-out: IC50 values (μM), cell viability
Experimental: as §2

[8] = test system: ARH77 multiple myeloma cells; test: MTT cell viability assay; conditions: read-out: IC50 values (μM), cell viability
Experimental: as §2

[9] = test system: HCT-116 colorectal cancer cells; test: MTT cell viability assay; conditions: read-out: IC50 values (μM), cell viability
Experimental: as §2

[10] = test system: SNU-387 liver cancer cells; test: MTT cell viability assay; conditions: read-out: IC50 values (μM), cell viability
Experimental: as §2

U87 glioblastoma cells = test: MTT cell viability assay; conditions: read-out: IC50 values (μM), cell viability
Experimental: as §2

[11] = test system: SNU-398 liver cancer cells; test: MTT cell viability assay; conditions: read-out: IC50 values (μM), cell viability
Experimental: as §2

[12] = test system: STAT3 phosphorylation induced by IL-6 in MDA-MB-453 breast cancer cells; test: IL-6 induction of STAT3 phosphorylation; type: cell-based, human; conditions: MDA-MB-453, pretreatment 20 μM, IL-6 50 ng/mL 30 min
Experimental: After stimulation with IL-6 (50 ng/mL, Sigma) or IFN-γ (50 ng/mL, Sigma) for 30 min, the cells were harvested and analyzed by western blot.

| IC50 (U251 glioblastoma cells; Homo sapiens, U-251, 72 h) [µM] | IC50 (Hep3B liver cancer cells; Homo sapiens, Hep3B, 72 h) [µM] | IC50 ([1]; Homo sapiens, SNU-449, 72 h) [µM] | IC50 ([6]; Homo sapiens, SW480, 72 h) [µM] | IC50 ([7]; Homo sapiens, U-266, 72 h) [µM] | IC50 ([8]; Homo sapiens, ARH-77, 72 h) [µM] | IC50 (U251 glioblastoma cells; U251 (G), MTT, 72 hours) [µM] | IC50 (Hep3B liver cancer cells; Hep3B (L), MTT, 72 hours) [µM] | IC50 ([1]; SNU-449 (L), MTT, 72 hours) [µM] | IC50 ([6]; SW480 (C), MTT, 72 hours) [µM] | IC50 ([7]; U266 (MM), MTT, 72 hours) [µM] | IC50 ([8]; ARH77 (MM), MTT, 72 hours) [µM] | IC50 ([9]; HCT-116 (C), MTT, 72 hours) [µM] | IC50 ([10]; SNU-387 (L), MTT, 72 hours) [µM] | IC50 (U87 glioblastoma cells; U87 (G), MTT, 72 hours) [µM] | IC50 ([11]; SNU-398 (L), MTT, 72 hours) [µM] | Structure (SMILES) | apoptosis indicated by cleavage of caspase-3 (in words) [2] | effect on STAT3 phosphorylation (in words) [3] | effect on STAT3 phosphorylation (in words) [4] | apoptosis indicated by cleavage of caspase-3 (in words) [5] | also measured |
| --- | --- | --- | --- | --- | --- | --- | --- | --- | --- | --- | --- | --- | --- | --- | --- | --- | --- | --- | --- | --- | --- |
| 5.04 | 10.2 | 3.85 | 1.98 | 1.38 | 3.43 | – | – | – | – | – | – | – | – | – | – | C[C@H](NC(=O)/C(C#N)=C/c1cccc(Br)n1)c1ccccc1 [WP1066] | induce apoptosis | inhibit STAT3 phosphorylation | inhibit STAT3 phosphorylation | induce apoptosis | IC50 ([9]; Homo sapiens, HCT-116, 72 h): 1.51 µM; IC50 ([10]; Homo sapiens, SNU-387, 72 h): 5.17 µM; IC50 (U87 glioblastoma cells; Homo sapiens, 72 h): 5.78 µM; IC50 ([11]; Homo sapiens, SNU-398, 72 h): 4.88 µM |
| 7.1 | 68.1 | 9.88 | 10.3 | 4.76 | 10.1 | – | – | – | – | – | – | – | – | – | – | COc1cc(/C=C/C(=O)CC(=O)/C=C/c2ccc(O)c(OC)c2)ccc1O [Curcumin] | – | – | – | – | inhibition of the induction of STAT3 phosphorylation by IL-6 [12]: not; IC50 ([9]; Homo sapiens, HCT-116, 72 h): 10.9 µM; IC50 ([10]; Homo sapiens, SNU-387, 72 h): 25.5 µM; IC50 (U87 glioblastoma cells; Homo sapiens, 72 h): 6.91 µM; IC50 ([11]; Homo sapiens, SNU-398, 72 h): 5.37 µM |

Second part, the compound before the results:

| Structure (SMILES) | IC50 (U251 glioblastoma cells; Homo sapiens, U-251, 72 h) [µM] | IC50 (Hep3B liver cancer cells; Homo sapiens, Hep3B, 72 h) [µM] | IC50 ([1]; Homo sapiens, SNU-449, 72 h) [µM] | IC50 ([6]; Homo sapiens, SW480, 72 h) [µM] | IC50 ([7]; Homo sapiens, U-266, 72 h) [µM] | IC50 ([8]; Homo sapiens, ARH-77, 72 h) [µM] | IC50 (U251 glioblastoma cells; U251 (G), MTT, 72 hours) [µM] | IC50 (Hep3B liver cancer cells; Hep3B (L), MTT, 72 hours) [µM] | IC50 ([1]; SNU-449 (L), MTT, 72 hours) [µM] | IC50 ([6]; SW480 (C), MTT, 72 hours) [µM] | IC50 ([7]; U266 (MM), MTT, 72 hours) [µM] | IC50 ([8]; ARH77 (MM), MTT, 72 hours) [µM] | IC50 ([9]; HCT-116 (C), MTT, 72 hours) [µM] | IC50 ([10]; SNU-387 (L), MTT, 72 hours) [µM] | IC50 (U87 glioblastoma cells; U87 (G), MTT, 72 hours) [µM] | IC50 ([11]; SNU-398 (L), MTT, 72 hours) [µM] | apoptosis indicated by cleavage of caspase-3 (in words) [2] | effect on STAT3 phosphorylation (in words) [3] | effect on STAT3 phosphorylation (in words) [4] | apoptosis indicated by cleavage of caspase-3 (in words) [5] | also measured |
| --- | --- | --- | --- | --- | --- | --- | --- | --- | --- | --- | --- | --- | --- | --- | --- | --- | --- | --- | --- | --- | --- |
| Cc1ccc(S(=O)(=O)OCC(=O)Nc2ccc(C(=O)O)c(O)c2)cc1 [S3I-201] | – | – | – | – | – | – | 97.3 | > 100 | > 100 | > 100 | 8.87 | 35.2 | > 100 | > 100 | 55.1 | 16.2 | – | – | – | – | – |
| O=[N+]([O-])c1ccc2c(c1)S(=O)(=O)C=C2 [Stattic] | – | – | – | – | – | – | 0.84 | 17.8 | 2.5 | 0.43 | 0.99 | 2.57 | 0.96 | 4.3 | 0.73 | 3.23 | induce apoptosis | inhibit STAT3 phosphorylation | inhibit STAT3 phosphorylation | induce apoptosis | – |
| N#C/C(=C/c1ccc(O)c(O)c1)C(=O)NCc1ccccc1 [AG490] | – | – | – | – | – | – | 50.7 | > 100 | > 100 | 86.8 | 9.5 | 28.2 | 50.5 | > 100 | > 100 | 24.3 | – | – | – | – | – |
